US8673281B2 (BioCis Pharma Oy, priority 2003, dated 2014)
“Also recorded” adds a separate entry of the source.

Tests used:
[1] = tested on: histamine receptors; details: Laihia, 1998; cited from earlier work
[2] = tested on: neutrophils; assay: Monitoring of intracellular pH (BCECF flow cytometry, nigericin calibration); type: cell-based, human; details: for effect on intracellular BCECF signal: extracellular pH adjusted to 7.4
Protocol: Intracellular pH levels in neutrophils were monitored with flow cytometry utilizing a pH-sensitive fluorescent dye 2′,7′-bis-(2-carboxyethyl)-5-(and-6)-carboxyfluorescein (BCECF, acetoxymethyl ester; Molecular Probes, Leiden, The Netherlands). About 30×10^6 cells were incubated in 10 ml HBSS, pH 7.4, containing 0.35 μM BCECF at 25° C. for 30 min, washed twice in HBSS, and resuspended in 1 ml of 154 mM NaCl. Aliquot (235 μl) of the incubation medium with known UCA concentrations and checked pH was applied to the cells (4.5×10^5 cells/15 μl NaCl) in polystyrene tubes, incubated at 25° C. for about 20 min, and analyzed in a flow cytometer.
Calibration of intracellular pH was performed in situ using the K^+/H^+ ionophore nigericin. An excess of pH calibration buffers (10 mM Pipes, 131 mM KCl, pH adjusted to 6.10, 6.50, 6.80, 7.10, 7.40, and 7.60 or 7.70) and 10 μM nigericin was added to the BCECF-labelled cells in 154 mM NaCl. The cells were kept at room temperature and analysed by flow cytometry within 45 min. Cells incubated with or without UCA were analysed for intracellular pH simultaneously. The pH was adjusted to the same values as those in the calibration buffers. Intracellular pH was determined from a BCECF fluorescence intensity calibration curve.

[3] = cited from earlier work; for imidazolyl pKa: Roberts et al. 1982, Krien & Kermici 2000
[4] = tested on: neutrophils; assay: Respiratory burst activity, opsonized zymosan-induced chemiluminescence; type: cell-based, human; details: 3 mM UCA
Protocol: The respiratory burst activity was used as a measure of neutrophil function. The UCA isomers were tested in a chemiluminescence assay with opsonized zymosan as described (Kivistö et al. 1996). The peak values were recorded.
To examine how the cytosol-acidifying effect of UCA correlates with the previously reported inhibition of neutrophil respiratory burst activity, we measured the effect of 3 mM UCA on opsonized zymosan-induced chemiluminescence by the same batch of neutrophils and in the same experimental conditions described above, i.e. when the pH of the test solution was adjusted back to its initial level after UCA addition. […] In the same conditions, cis-UCA suppressed the respiratory burst activity by 15%±8.4% and 44%±1.3%, respectively. […] The corresponding inhibitions for cis-UCA were 41%±10% at pH 6.60±0.02 (nominal pH 7.4) and 48%±1.6% at pH 6.33±0.07 (nominal pH 6.5).

[5] = tested on: neutrophil cytosol; assay: UCA metabolism in neutrophil cytosol (TCA precipitation, scintillation counting, HPLC); type: in vitro ADME, human
Protocol: An aminopropyl stationary phase column Lichrosorb NH2, Hibar RT, 250×4 mm, 5 μm (Merck, Darmstadt, Germany) was used. The eluent was a 50% (v/v) mixture of acetonitrile and a solution of 2% (v/v) acetic acid and 0.5% (w/v) ammonium acetate in water (pH ca. 5). The isomers were detected at 268 nm, and the retention times were Tr(cis) 3.7 min and Tr(trans) 5.4 min.
Samples were mixed with OptiPhase HiSafe 2 scintillation liquid (EG&G Wallac, Turku, Finland) and [^14C]UCA radioactivity measured in RackBeta 1214 scintillation counter (EG&G Wallac). The counting efficiency was 96.7%±0.12% (mean±SEM, n=48).
Next, we examined whether the [^14C]UCA in the cytosol was metabolized by neutrophils after the uptake by determining how much of the radioactive label was associated with intact UCA. This was carried out by precipitating the cytosolic proteins of [^14C]UCA-labeled neutrophils with 10% trichloracetic acid (TCA) on ice overnight. The amount of radioactive label was then measured both in the precipitate and in the protein-free supernatant by scintillation counting, and the content of intact UCA in the supernatant by HPLC.

[6] = Protonation state calculated with the Henderson-Hasselbalch Equation; details: pH 6.5
Source text: It can be hypothesized that the ability of UCA to acidify cytosol in living cells depends on two major parameters: the pH of the extracellular space and the initial pH of the cytosol. Because UCA is found mainly in the skin, one should consider these two parameters in the context of the physiological environment. It is well known that the human skin has an acid mantle with a surficial pH around 4-6. When the stratum corneum is stripped layer by layer, the pH increases gradually and, after total removal of the stratum corneum, the pH in the remaining epidermis is about 6.9 (Öhman & Vahlquist, 1994). In deeper layers, the almost neutral pH of the interior body is reached. A recent analysis provides evidence that UCA is the major pH-regulating factor in the human stratum corneum (Krien & Kermici 2000). The majority of UCA resides in the stratum corneum; however, a significant amount of UCA diffuses into and evidently also through the (epi)dermis, because elevated levels of cis-UCA can be detected in the urine within 1-4 h following total-body UVB exposure (Kammayer et al. 1997). […] In contrast, at a pH below the imidazolyl pKa's, UCA would be mainly in the protonated form capable of promoting cytosolic acidification upon cell entry. […] To provide experimental support for these hypotheses, we measured the change in cytosolic pH in UCA-treated cells. […]

[7] = pH effect of UCA isomers on incubation buffers; type: physicochemical; details: for pH of test solution after UCA supplementation: 3 mM UCA, unadjusted; for effect on pH of HBSS buffer: HBSS adjusted to pH 6.5 prior to UCA addition
Source text: As such, UCA resembles small ions (e.g., K^+, Na^+, H^+, […]) which enter the cell and modulate cell functions by altering the physico-chemical micro-environment (pH, ion potential, ion strength) of the cytosol. Therefore, we hypothesized that the high levels of intact UCA may provoke cellular changes simply due to its passive presence in the cytosol as an acid. […] Such a possibility was approached by testing the effect of UCA on pH first in a buffer solution and then in intact cells. […]

[8] = 3 mM UCA, extracellular pH 6.1-7.7, effect below pH 7
[9] = pH left unadjusted, nominal pH 6.5
[10] = pH left unadjusted, nominal pH 7.4

O=C(O)/C=C\c1c[nH]cn1 [cis-UCA, cis-urocanic acid]
binding to histamine receptors [1]: does not directly bind | effect on intracellular pH (nigericin calibration) ([2]; 0.3 mM UCA, same pH range): much smaller effect | effect on intracellular pH (nigericin calibration) [2, 8]: lowers the intracellular pH | effect on intracellular BCECF signal ([2]; 3 mM UCA): no significant effect | pKa of the carboxyl group ([3]; Roberts 1982): ~3.3 | imidazolyl pKa [3]: ~7.0 | inhibition of respiratory burst chemiluminescence ([4]; pH adjusted back to 6.5, n=3): 44%±1.3% | inhibition of respiratory burst chemiluminescence ([4]; pH adjusted back to 7.4): 15%±8.4% | inhibition of respiratory burst chemiluminescence [4, 9]: 48%±1.6% | inhibition of respiratory burst chemiluminescence [4, 10]: 41%±10% | recovery of [14C]UCA activity in protein-free supernatant ([5]; 10% TCA precipitation of cytosolic proteins, cis n=9, trans n=4): 102%±3.9% | fraction in protonated state [6]: over 70% | pH of test solution after UCA supplementation ([7]; nominal pH 6.5): 6.33±0.07 | pH of test solution after UCA supplementation ([7]; nominal pH 7.4): 6.60±0.02 | effect on pH of HBSS buffer [7]: almost no effect

O=C(O)C=Cc1c[nH]cn1 [trans-UCA, 3-(1H-imidazol-4-yl)-2-propenoic acid, reference compound]
effect on intracellular pH (nigericin calibration) [2, 8]: only a minor effect | effect on intracellular BCECF signal ([2]; 3 mM UCA): no significant effect | imidazolyl pKa [3]: ~6.1 | inhibition of respiratory burst chemiluminescence ([4]; pH adjusted back to 6.5, n=3): 14%±4.0% | inhibition of respiratory burst chemiluminescence ([4]; pH adjusted back to 7.4): no effect | inhibition of respiratory burst chemiluminescence [4, 9]: 48%±4.0% | inhibition of respiratory burst chemiluminescence [4, 10]: 31%±8.4% | recovery of [14C]UCA activity in protein-free supernatant ([5]; human): 100.2%±0.9% | fraction in deprotonated state [6]: 70% | pH of test solution after UCA supplementation ([7]; nominal pH 6.5): 5.87±0.06 | pH of test solution after UCA supplementation ([7]; nominal pH 7.4): 6.22±0.02 | effect on pH of HBSS buffer [7]: markedly reduce the pH; also recorded: dropped the pH
